These compounds were tested against T1, HDM2 (Homo sapiens, UniProt Q00987) (assay: HDM2 FRET assay (inhibition of binding of FITC labeled p53-pocket peptide to HDM2)). Conditions: Table 6; read-out: FRET IC50.
T1 construct: Thioredoxin (N); made in house; host or cells: E. coli strain BL21(DE3)Rosetta
Outline: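 Displacement of FITC-p53 peptide (3 nM) from His-tagged HDM2 (0.5 nM) is measured by Tb-to-fluorescein FRET in PBS, 0.01% BSA, 0.01% Tween-20. IC50 values derive from 10-point curves.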

T1 sequence (Q00987 17-125): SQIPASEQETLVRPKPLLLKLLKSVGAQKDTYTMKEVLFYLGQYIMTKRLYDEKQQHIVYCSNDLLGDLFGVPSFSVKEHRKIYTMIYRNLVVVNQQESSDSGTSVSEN

Question: How did the IC50 turn out when `Cc1cccc(-c2nc3nc(C(=O)O)nc(NC4CCCC4)c3n2Cc2ccc(C(F)(F)F)cc2)c1` [Example 6.22, 6-(cyclopentylamino)-8-(3-methylphenyl)-7-[4-(trifluoromethyl)benzyl]-7H-purine-2-carboxylic acid] was run?
Answer: The IC50 was 0.649 µM.

Question: How did the IC50 turn out when `Cc1cccc(-c2nc3nc(C(=O)O)nc(N4CCCC4)c3n2Cc2ccc(C(F)(F)F)cc2)c1` [Example 6.23, 8-(3-methylphenyl)-6-pyrrolidin-1-yl-7-[4-(trifluoromethyl)benzyl]-7H-purine-2-carboxylic acid] was run?
Answer: The IC50 was 8.27 µM.

Question: For `Cc1cccc(-c2nc3nc(C(=O)O)nc(NC(C4CC4)C4CC4)c3n2Cc2ccc(C(F)(F)F)cc2)c1` [Example 6.24, 6-[(dicyclopropylmethyl)amino]-8-(3-methylphenyl)-7-[4-(trifluoromethyl)benzyl]-7H-purine-2-carboxylic acid], which IC50 is on record?
Answer: The IC50 was 0.329 µM.

Question: Which IC50 does the source give for `Cc1cccc(-c2nc3nc(C(=O)O)nc(NCCc4ccccc4)c3n2Cc2ccc(C(F)(F)F)cc2)c1` [Example 6.25, 8-(3-methylphenyl)-6-[(2-phenylethyl)amino]-7-[4-(trifluoromethyl)benzyl]-7H-purine-2-carboxylic acid] here?
Answer: Its IC50 is 5.08 µM.

Question: `Cc1cccc(-c2nc3nc(C(=O)O)nc(N[C@@H](C)c4cccc(Cl)c4)c3n2Cc2ccc(C(F)(F)F)cc2)c1` [Example 6.26, 6-{[(1S)-1-(3-chlorophenyl)ethyl]amino}-8-(3-methylphenyl)-7-[4-(trifluoromethyl)benzyl]-7H-purine-2-carboxylic acid] was tested. Which IC50 did it give?
Answer: The IC50 was 6.97 µM.

Question: `Cc1cccc(-c2nc3nc(C(=O)O)nc(N[C@H](C)c4cccc(Cl)c4)c3n2Cc2ccc(C(F)(F)F)cc2)c1` [Example 6.27, 6-{[(1R)-1-(3-chlorophenyl)ethyl]amino}-8-(3-methylphenyl)-7-[4-(trifluoromethyl)benzyl]-7H-purine-2-carboxylic acid] was tested. Which IC50 did it give?
Answer: Its IC50 is 2.36 µM.

Question: Which IC50 does the source give for `Cc1cccc(-c2nc3nc(C(=O)O)nc(NC4CCCCC4)c3n2Cc2ccc(C(F)(F)F)cc2)c1` [Example 6.28, 6-(cyclohexylamino)-8-(3-methylphenyl)-7-[4-(trifluoromethyl)benzyl]-7H-purine-2-carboxylic acid] here?
Answer: The IC50 was 0.589 µM.

Question: With `Cc1cccc(-c2nc3nc(C(=O)O)nc(NCc4ccccc4)c3n2Cc2ccc(C(F)(F)F)cc2)c1` [Example 6.29, 6-(benzylamino)-8-(3-methylphenyl)-7-[4-(trifluoromethyl)benzyl]-7H-purine-2-carboxylic acid] as the compound, how does the IC50 read?
Answer: Its IC50 is 1.77 µM.

Question: For `Cc1cccc(-c2nc3nc(C(=O)O)nc(N[C@H](C)c4ccccc4)c3n2Cc2ccc(C(F)(F)F)cc2)c1` [Example 6.30, 8-(3-methylphenyl)-6-{[(1R)-1-phenylethyl]amino}-7-[4-(trifluoromethyl)benzyl]-7H-purine-2-carboxylic acid], which IC50 is on record?
Answer: Its IC50 is 1.49 µM.

Question: How did the IC50 turn out when `Cc1cccc(-c2nc3nc(C(=O)O)nc(N[C@@H](C)c4ccccc4)c3n2Cc2ccc(C(F)(F)F)cc2)c1` [Example 6.31, 8-(3-methylphenyl)-6-{[(1S)-1-phenylethyl]amino}-7-[4-(trifluoromethyl)benzyl]-7H-purine-2-carboxylic acid] was run?
Answer: The IC50 was 4.3 µM.

Question: For `Cc1cccc(-c2nc3nc(C(=O)O)nc(NC(C)C4CCCC4)c3n2Cc2ccc(C(F)(F)F)cc2)c1` (stereo not shown) [Example 6.32, 6-[(1-cyclopentylethyl)amino]-8-(3-methylphenyl)-7-[4-(trifluoromethyl)benzyl]-7H-purine-2-carboxylic acid], which IC50 is on record?
Answer: Its IC50 is 0.373 µM.

Question: For `Cc1cccc(-c2nc3nc(C(=O)O)nc(NC4CCC(C)CC4C)c3n2Cc2ccc(C(F)(F)F)cc2)c1` (stereo not shown) [Example 6.33, 6-[(2,4-dimethylcyclohexyl)amino]-8-(3-methylphenyl)-7-[4-(trifluoromethyl)benzyl]-7H-purine-2-carboxylic acid], which IC50 is on record?
Answer: The IC50 was 0.305 µM.

Question: Which IC50 does the source give for `Cc1cccc(-c2nc3nc(C(=O)O)nc(NC4CCC(C)CC4C)c3n2Cc2ccc(C(F)(F)F)cc2)c1` (stereo not shown) [Example 6.34, 6-[(2,4-dimethylcyclohexyl)amino]-8-(3-methylphenyl)-7-[4-(trifluoromethyl)benzyl]-7H-purine-2-carboxylic acid] here?
Answer: The IC50 was 1.14 µM.

Source: patent publication EP2951180B1, “2,6,7,8 SUBSTITUTED PURINES AS HDM2 INHIBITORS” (Merck Sharp & Dohme Corp., priority 2013, dated 2014)
